From US7071293B1, “Alpha helical peptides with broad spectrum antimicrobial activity that are insensitive to salt” (priority 1999, dated 2006)
Where two headings read alike, the source gives them in different places. Ends that are not written are not given here.

What was measured:
[1] = system: E. coli DH5α; conditions: for EC50: DH5α; for EC50 E. coli DH5α: ionic strength 25 mM, avg ± sem
[2] = system: S. aureus 930918-3; conditions: for MIC S. aureus [NaCl] High / MIC S. aureus [NaCl] Low: 930918-3, pH 7.4
[3] = system: MRSA ATCC 33591; conditions: for MIC MRSA [NaCl] High / MIC MRSA [NaCl] Low: ATCC 33591, pH 7.4
[4] = system: P. aeruginosa PAO1; conditions: avg ± sem
[5] = system: E. coli ML-35p; conditions: for MIC E. coli [NaCl] High: high salt underlay (10 mM sodium phosphate buffer +100 mM NaCl, pH 7.4); for MIC E. coli [NaCl] High / MIC E. coli [NaCl] Low: Table 13; for MIC E. coli [NaCl] Low: low salt underlay (10 mM sodium phosphate buffer, pH 7.4); for E. coli ML-35p MIC, 0 mM NaCl: underlay 0 mM NaCl; for E. coli ML-35p MIC, 0 mM NaCl / E. coli ML-35p MIC, 175 mM NaCl: Table 15; for E. coli ML-35p MIC, 175 mM NaCl: underlay 175 mM NaCl
[6] = system: P. aeruginosa PAO1; assay: Relative time for killing (luminescence measured at intervals); assay type: cell-based; conditions: peptide at ten times its EC50 (SMAP29X-18D 15.7 X, SMAP29X-14A 17.4 X), 25 mM ionic strength
[7] = system: P. aeruginosa MR 3007; conditions: for MIC P. aeruginosa [NaCl] High / MIC P. aeruginosa [NaCl] Low: MR 3007, pH 7.4
[8] = system: B. cepacia ATCC 25416; assay: Two stage radial diffusion assay (MIC); assay type: cell-based; design: unit not given here; conditions: underlay 0 mM NaCl
[9] = system: N. gonorrhoeae; assay: Two stage radial diffusion assay (MIC); assay type: cell-based; design: unit not given here; conditions: done only at 100 mM NaCl; for N. gonorrhoeae F 62 (serum-sensitive): strain F 62 (serum-sensitive); for N. gonorrhoeae FA 19 (serum-resistant): strain FA 19 (serum-resistant)
[10] = system: E. coli DH-5α
[11] = system: L. monocytogenes EGD; assay: Two stage radial diffusion assay (MIC); assay type: cell-based; design: unit not given here; conditions: underlay 0 mM NaCl
[12] = system: P. aeruginosa PA-01

Substance	EC50 [1] [nM]	EC50 E. coli DH5α [1] [µg/mL]	MIC S. aureus [NaCl] High [2] [µg/mL]	MIC S. aureus [NaCl] Low [2] [µg/mL]	MIC MRSA [NaCl] High [3] [µg/mL]	MIC MRSA [NaCl] Low [3] [µg/mL]	EC50 P. aeruginosa PAO1 ([4]; ionic strength 25 mM) [µg/mL]	EC50 P. aeruginosa PAO1 ([4]; ionic strength 175 mM) [µg/mL]	MIC E. coli [NaCl] High [5] [µg/mL]	MIC E. coli [NaCl] Low [5] [µg/mL]	Half-time of Killing (min. avg. ± sem) [6] [min]	MIC P. aeruginosa [NaCl] High [7] [µg/mL]	S. aureus 930918-3 MIC, 0 mM NaCl [2] [µg/mL]	B. cepacia ATCC 25416 in underlays of low, normal and high salinity, 0 mM NaCl [8]	MRSA ATCC 33591 MIC, 0 mM NaCl [3] [µg/mL]	N. gonorrhoeae F 62 (serum-sensitive) [9]	N. gonorrhoeae FA 19 (serum-resistant) [9]	E. coli ML-35p MIC, 0 mM NaCl [5] [µg/mL]	L. monocytogenes in underlays of low, normal and high salinity, 0 mM NaCl [11]	P. aeruginosa MR-3007 MIC, 0 mM NaCl [7] [µg/mL]	also measured
GLRKRLRKFRNKIKEKLKKIG [CAP18-21a]	190 ± 10	0.48 ± 0.03	2.2	1.8	>250	19.4	0.58 ± 0.09	0.54 ± 0.10	0.4	2.3	9.2 ± 3.4	0.9									MIC P. aeruginosa [NaCl] Low [7]: 0.7 µg/mL
GLRKRLRKFRNKIKEKLKKIGQKIQGLLPKLAPRTDY [CAP 18]	150 ± 20	0.69 ± 0.08	2.8	1.8	6.1	8.2	0.98 ± 0.24	0.50 ± 0.10	0.4	0.2	4.0 ± 1.4	1.6									MIC P. aeruginosa [NaCl] Low [7]: 0.2 µg/mL
GLRKRLRKFRNKIKEKLKKIGQKIQGLLPKLAPRTDY [Peptide 18]													1.8	>79.1	8.2	0.7	0.6	2.8	0.6	2.1	E. coli DH-5α MIC, 0 mM NaCl ([10]; DH-5α): 0.84 µg/mL; P. aeruginosa PA-01 MIC, 0 mM NaCl [12]: 0.88 µg/mL
KIKEKLKKIGQKIQG [Peptide 25]													>250	>250	>250	>79.1	>250	1.6	>250	8.7	
KIKEKLKKIGQKIQGLL [Peptide 26]													>250	>250	>250	>79.1	>250	0.4	5.7	1.0	
KNLRRIIRKIIHIIKKYG [Peptide 8]													0.84 ± 0.14	20.2	0.77 ± 0.04	0.5	0.2	0.45 ± 0.10	2.1	0.67 ± 0.12	S. aureus 930918-3 MIC, 175 mM NaCl [2]: 0.86 ± 0.06 µg/mL; MRSA ATCC 33591 MIC, 175 mM NaCl [3]: 0.89 ± 0.05 µg/mL; E. coli ML-35p MIC, 175 mM NaCl [5]: 0.41 ± 0.06 µg/mL; E. coli DH-5α MIC, 0 mM NaCl ([10]; DH-5α): 0.26 ± 0.05 µg/mL; E. coli DH-5α MIC, 175 mM NaCl ([10]; DH-5α): 0.35 ± 0.09 µg/mL; P. aeruginosa MR-3007 MIC, 175 mM NaCl [7]: 0.59 ± 0.05 µg/mL; P. aeruginosa PA-01 MIC, 0 mM NaCl [12]: 0.83 ± 0.05 µg/mL; P. aeruginosa PA-01 MIC, 175 mM NaCl [12]: 0.82 ± 0.05 µg/mL
KNLRRIIRKIIHIIKKYGPTILRIIRIIG-NH2 [Peptide 28]													0.55 ± 0.17	17.0	0.32 ± 0.04	0.1	0.1	0.16 ± 0.03	0.4	0.34 ± 0.22	S. aureus 930918-3 MIC, 175 mM NaCl [2]: 1.14 ± 0.23 µg/mL; MRSA ATCC 33591 MIC, 175 mM NaCl [3]: 1.57 ± 0.30 µg/mL; E. coli ML-35p MIC, 175 mM NaCl [5]: 0.58 ± 0.12 µg/mL; E. coli DH-5α MIC, 175 mM NaCl ([10]; DH-5α): 0.40 ± 0.09 µg/mL; E. coli DH-5α MIC, 0 mM NaCl ([10]; underlay 0 mM NaCl): 0.0042 µg/mL; P. aeruginosa MR-3007 MIC, 175 mM NaCl [7]: 0.49 ± 0.06 µg/mL; P. aeruginosa PA-01 MIC, 0 mM NaCl [12]: 0.53 ± 0.14 µg/mL; P. aeruginosa PA-01 MIC, 175 mM NaCl [12]: 1.17 ± 0.23 µg/mL
KRLRKFRNKIKEKLKKIG [CAP18-18]	200 ± 30	0.47 ± 0.06	29.0	9.7	>250	14.9	1.05 ± 0.37	1.59 ± 0.29	1.5	2.8	19.5 ± 8.2	3.2									MIC P. aeruginosa [NaCl] Low [7]: 2.1 µg/mL
